Laboratory results taken from patent US20020009509A1, “Soya extract containing lipids, process for its production, and pharmaceutical and cosmetic composition” (priority 1999, published 2002).

System: dry skin
Assay: Skin hydration of dry skin measured as electric capacitance of the horny layer (Corneometer CM 820)
Format: in vivo
Conditions: 1.5% extract solution or 2% collagen
Method: The treatment according to the invention was with an emulsion, in water, containing the extract according to the invention and 2% hydroxyethylcellulose. Skin hydration was measured as electric capacitance of the horny layer using a commercially available device (Corneometer CM 820, Courage+ Kazaka, Cologne, Germany). The mean value of five consecutive measurements was determined and recorded as the measured value. The electric capacitance is expressed by means of an arbitrary scale ranging from 0 to 100 units. Groups of 10 subjects were used.

collagen
Hydration (units), After 60 min (60 min after treatment, arbitrary scale 0 to 100 units, groups of 10 subjects, *P < 0.05, **P < 0.001): 57.7 ± 0.1* units
Hydration, Change % (after 60 min versus starting value): 35.6%
Hydration (units), Starting value (before treatment, arbitrary scale 0 to 100 units, groups of 10 subjects): 42.7 ± 0.4 units
